In brackets after ≈: the same amount, converted by molar mass.
Columns and labels:
Type in all cases: functional
[1] = tested on: Pseudomonas aeruginosa; experiment: Antibacterial activity against Pseudomonas aeruginosa MTCC 424 after 24 hrs by serial dilution method; details: MTCC 424, 24 h
[2] = tested on: Candida albicans; experiment: Antifungal activity against Candida albicans MTCC 227 after 48 hrs by serial dilution method; details: MTCC 227, 48 h
[3] = tested on: Escherichia coli; experiment: Antibacterial activity against Escherichia coli MTCC 16521 after 24 hrs by serial dilution method; details: MTCC 16521, 24 h
[4] = tested on: Staphylococcus epidermidis; experiment: Antibacterial activity against Staphylococcus epidermidis MTCC 6880 after 24 hrs by serial dilution method; details: MTCC 6880, 24 h
[5] = tested on: Aspergillus niger; experiment: Antifungal activity against Aspergillus niger MTCC 8189 after 120 hrs by serial dilution method; details: MTCC 8189, 120 h
[6] = tested on: Bacillus subtilis; experiment: Antibacterial activity against Bacillus subtilis MTCC 441 after 24 hrs by serial dilution method; details: MTCC 441, 24 h

O=C(/C=C/c1c(OCc2cn(Cc3ccc(F)cc3)nn2)ccc2ccccc12)c1ccc([N+](=O)[O-])cc1
MIC [1]: 6.3 µM (≈ 3.2 µg/mL) | MIC [2]: 3.2 µM (≈ 1.63 µg/mL) | MIC [3]: 3.2 µM (≈ 1.63 µg/mL) | MIC [4]: 3.2 µM (≈ 1.63 µg/mL) | MIC [5]: 3.2 µM (≈ 1.63 µg/mL) | MIC [6]: 6.3 µM (≈ 3.2 µg/mL)

COc1ccc(C(=O)/C=C/c2c(OCc3cn(Cc4cccc(F)c4)nn3)ccc3ccccc23)cc1
MIC [1]: 25.3 µM (≈ 12.5 µg/mL) | MIC [2]: 12.6 µM (≈ 6.22 µg/mL) | MIC [3]: 12.6 µM (≈ 6.22 µg/mL) | MIC [4]: 25.3 µM (≈ 12.5 µg/mL) | MIC [5]: 12.6 µM (≈ 6.22 µg/mL) | MIC [6]: 25.3 µM (≈ 12.5 µg/mL)

COc1ccc(C(=O)/C=C/c2c(OCc3cn(-c4ccc(F)cc4)nn3)ccc3ccccc23)cc1
MIC [1]: 26.1 µM (≈ 12.5 µg/mL) | MIC [2]: 13 µM (≈ 6.23 µg/mL) | MIC [3]: 13 µM (≈ 6.23 µg/mL) | MIC [4]: 52.2 µM (≈ 25 µg/mL) | MIC [5]: 52.2 µM (≈ 25 µg/mL) | MIC [6]: 26.1 µM (≈ 12.5 µg/mL)

C#CCOc1ccc2ccccc2c1/C=C/C(=O)c1ccc(OC)cc1
MIC [1]: 73.1 µM (≈ 25 µg/mL) | MIC [2]: 73.1 µM (≈ 25 µg/mL) | MIC [3]: 73.1 µM (≈ 25 µg/mL) | MIC [4]: 146 µM (≈ 50.1 µg/mL) | MIC [5]: 73.1 µM (≈ 25 µg/mL) | MIC [6]: 73.1 µM (≈ 25 µg/mL)

O=C(/C=C/c1c(OCc2cn(Cc3cccc(F)c3)nn2)ccc2ccccc12)c1ccc(Br)cc1
MIC [1]: 23.2 µM (≈ 12.6 µg/mL) | MIC [2]: 23.2 µM (≈ 12.6 µg/mL) | MIC [3]: 11.6 µM (≈ 6.29 µg/mL) | MIC [4]: 23.2 µM (≈ 12.6 µg/mL) | MIC [5]: 23.2 µM (≈ 12.6 µg/mL) | MIC [6]: 11.6 µM (≈ 6.29 µg/mL)

COc1ccc(C(=O)/C=C/c2c(OCc3cn(Cc4ccccc4F)nn3)ccc3ccccc23)cc1
MIC [1]: 12.6 µM (≈ 6.22 µg/mL) | MIC [2]: 6.3 µM (≈ 3.11 µg/mL) | MIC [3]: 6.3 µM (≈ 3.11 µg/mL) | MIC [4]: 25.3 µM (≈ 12.5 µg/mL) | MIC [5]: 25.3 µM (≈ 12.5 µg/mL) | MIC [6]: 25.3 µM (≈ 12.5 µg/mL)

O=C(/C=C/c1c(OCc2cn(-c3ccc(F)cc3)nn2)ccc2ccccc12)c1ccc([N+](=O)[O-])cc1
MIC [1]: 25.3 µM (≈ 12.5 µg/mL) | MIC [2]: 12.6 µM (≈ 6.23 µg/mL) | MIC [3]: 25.3 µM (≈ 12.5 µg/mL) | MIC [4]: 25.3 µM (≈ 12.5 µg/mL) | MIC [5]: 12.6 µM (≈ 6.23 µg/mL) | MIC [6]: 12.6 µM (≈ 6.23 µg/mL)

O=C(/C=C/c1c(OCc2cn(Cc3ccccc3)nn2)ccc2ccccc12)c1ccc(Br)cc1
MIC [1]: 11.9 µM (≈ 6.24 µg/mL) | MIC [2]: 11.9 µM (≈ 6.24 µg/mL) | MIC [3]: 11.9 µM (≈ 6.24 µg/mL) | MIC [4]: 11.9 µM (≈ 6.24 µg/mL) | MIC [5]: 11.9 µM (≈ 6.24 µg/mL) | MIC [6]: 23.9 µM (≈ 12.5 µg/mL)

O=C(/C=C/c1c(OCc2cn(-c3cccc(C(F)(F)F)c3)nn2)ccc2ccccc12)c1ccc(Br)cc1
MIC [1]: 10.8 µM (≈ 6.25 µg/mL) | MIC [2]: 21.7 µM (≈ 12.6 µg/mL) | MIC [3]: 10.8 µM (≈ 6.25 µg/mL) | MIC [4]: 21.7 µM (≈ 12.6 µg/mL) | MIC [5]: 10.8 µM (≈ 6.25 µg/mL) | MIC [6]: 21.7 µM (≈ 12.6 µg/mL)

C#CCOc1ccc2ccccc2c1/C=C/C(=O)c1ccc(Br)cc1
MIC [1]: 63.7 µM (≈ 24.9 µg/mL) | MIC [2]: 63.7 µM (≈ 24.9 µg/mL) | MIC [3]: 63.7 µM (≈ 24.9 µg/mL) | MIC [4]: 127 µM (≈ 49.8 µg/mL) | MIC [5]: 127 µM (≈ 49.8 µg/mL) | MIC [6]: 63.7 µM (≈ 24.9 µg/mL)

O=C(/C=C/c1c(OCc2cn(Cc3cccc(F)c3)nn2)ccc2ccccc12)c1ccc([N+](=O)[O-])cc1
MIC [1]: 6.3 µM (≈ 3.2 µg/mL) | MIC [2]: 6.3 µM (≈ 3.2 µg/mL) | MIC [3]: 6.3 µM (≈ 3.2 µg/mL) | MIC [4]: 6.3 µM (≈ 3.2 µg/mL) | MIC [5]: 6.3 µM (≈ 3.2 µg/mL) | MIC [6]: 12.6 µM (≈ 6.41 µg/mL)

COc1ccc(C(=O)/C=C/c2c(OCc3cn(Cc4ccc(F)cc4)nn3)ccc3ccccc23)cc1
MIC [1]: 25.3 µM (≈ 12.5 µg/mL) | MIC [2]: 6.3 µM (≈ 3.11 µg/mL) | MIC [3]: 3.2 µM (≈ 1.58 µg/mL) | MIC [4]: 25.3 µM (≈ 12.5 µg/mL) | MIC [5]: 12.6 µM (≈ 6.22 µg/mL) | MIC [6]: 25.3 µM (≈ 12.5 µg/mL)

O=C(/C=C/c1c(OCc2cn(Cc3ccccc3F)nn2)ccc2ccccc12)c1ccc([N+](=O)[O-])cc1
MIC [1]: 24.8 µM (≈ 12.6 µg/mL) | MIC [2]: 6.3 µM (≈ 3.2 µg/mL) | MIC [3]: 6.3 µM (≈ 3.2 µg/mL) | MIC [4]: 6.3 µM (≈ 3.2 µg/mL) | MIC [5]: 6.3 µM (≈ 3.2 µg/mL) | MIC [6]: 6.3 µM (≈ 3.2 µg/mL)

O=C(/C=C/c1c(OCc2cn(Cc3ccc(F)cc3)nn2)ccc2ccccc12)c1ccc(Br)cc1
MIC [1]: 11.6 µM (≈ 6.29 µg/mL) | MIC [2]: 5.8 µM (≈ 3.15 µg/mL) | MIC [3]: 5.8 µM (≈ 3.15 µg/mL) | MIC [4]: 5.8 µM (≈ 3.15 µg/mL) | MIC [5]: 5.8 µM (≈ 3.15 µg/mL) | MIC [6]: 5.8 µM (≈ 3.15 µg/mL)

COc1ccc(C(=O)/C=C/c2c(OCc3cn(-c4cccc(C(F)(F)F)c4)nn3)ccc3ccccc23)cc1
MIC [1]: 23.6 µM (≈ 12.5 µg/mL) | MIC [2]: 11.8 µM (≈ 6.25 µg/mL) | MIC [3]: 11.8 µM (≈ 6.25 µg/mL) | MIC [4]: 23.6 µM (≈ 12.5 µg/mL) | MIC [5]: 11.8 µM (≈ 6.25 µg/mL) | MIC [6]: 23.6 µM (≈ 12.5 µg/mL)

O=C(/C=C/c1c(OCc2cn(Cc3ccccc3F)nn2)ccc2ccccc12)c1ccc(Br)cc1
MIC [1]: 23.2 µM (≈ 12.6 µg/mL) | MIC [2]: 23.2 µM (≈ 12.6 µg/mL) | MIC [3]: 11.6 µM (≈ 6.29 µg/mL) | MIC [4]: 11.6 µM (≈ 6.29 µg/mL) | MIC [5]: 23.2 µM (≈ 12.6 µg/mL) | MIC [6]: 11.6 µM (≈ 6.29 µg/mL)

COc1ccc(C(=O)/C=C/c2c(OCc3cn(Cc4ccccc4)nn3)ccc3ccccc23)cc1
MIC [1]: 26.3 µM (≈ 12.5 µg/mL) | MIC [2]: 52.6 µM (≈ 25 µg/mL) | MIC [3]: 26.3 µM (≈ 12.5 µg/mL) | MIC [4]: 52.6 µM (≈ 25 µg/mL) | MIC [5]: 52.6 µM (≈ 25 µg/mL) | MIC [6]: 26.3 µM (≈ 12.5 µg/mL)

O=C(/C=C/c1c(OCc2cn(-c3cccc(C(F)(F)F)c3)nn2)ccc2ccccc12)c1ccc([N+](=O)[O-])cc1
MIC [1]: 23 µM (≈ 12.5 µg/mL) | MIC [2]: 11.5 µM (≈ 6.26 µg/mL) | MIC [3]: 23 µM (≈ 12.5 µg/mL) | MIC [4]: 23 µM (≈ 12.5 µg/mL) | MIC [5]: 45.9 µM (≈ 25 µg/mL) | MIC [6]: 45.9 µM (≈ 25 µg/mL)

O=C(/C=C/c1c(OCc2cn(Cc3ccccc3)nn2)ccc2ccccc12)c1ccc([N+](=O)[O-])cc1
MIC [1]: 12.8 µM (≈ 6.28 µg/mL) | MIC [2]: 12.8 µM (≈ 6.28 µg/mL) | MIC [3]: 12.8 µM (≈ 6.28 µg/mL) | MIC [4]: 6.3 µM (≈ 3.09 µg/mL) | MIC [5]: 6.3 µM (≈ 3.09 µg/mL) | MIC [6]: 6.3 µM (≈ 3.09 µg/mL)

O=C(/C=C/c1c(OCc2cn(-c3ccc(F)cc3)nn2)ccc2ccccc12)c1ccc(Br)cc1
MIC [1]: 47.4 µM (≈ 25 µg/mL) | MIC [2]: 47.4 µM (≈ 25 µg/mL) | MIC [3]: 23.7 µM (≈ 12.5 µg/mL) | MIC [4]: 47.4 µM (≈ 25 µg/mL) | MIC [5]: 23.7 µM (≈ 12.5 µg/mL) | MIC [6]: 47.4 µM (≈ 25 µg/mL)

C#CCOc1ccc2ccccc2c1/C=C/C(=O)c1ccc([N+](=O)[O-])cc1
MIC [1]: 70 µM (≈ 25 µg/mL) | MIC [2]: 70 µM (≈ 25 µg/mL) | MIC [3]: 70 µM (≈ 25 µg/mL) | MIC [4]: 70 µM (≈ 25 µg/mL) | MIC [5]: 70 µM (≈ 25 µg/mL) | MIC [6]: 140 µM (≈ 50 µg/mL)

O=C(O)c1cn(C2CC2)c2cc(N3CCNCC3)c(F)cc2c1=O [CIPROFLOXACIN]
MIC [1]: 4.7 µM (≈ 1.56 µg/mL) | MIC [3]: 4.7 µM (≈ 1.56 µg/mL) | MIC [4]: 4.7 µM (≈ 1.56 µg/mL) | MIC [6]: 4.7 µM (≈ 1.56 µg/mL)

OC(Cn1cncn1)(Cn1cncn1)c1ccc(F)cc1F [FLUCONAZOLE]
MIC [2]: 10.2 µM (≈ 3.12 µg/mL) | MIC [5]: 5.1 µM (≈ 1.56 µg/mL)

Reference: ChEMBL document CHEMBL4152299, “Synthesis, crystal structure and antimicrobial potential of some fluorinated chalcone-1,2,3-triazole conjugates” (2018)
